The record followed here is patent publication US10946024B2, “Method for treating cancer” (Epizyme, Inc., priority 2014, dated 2021).

What all share (format): cell-based, human
The test system of experiment [1] is ATF3, EGR1 expression in SW982 cells. Description: Gene expression changes in vitro by RT-PCR, normalized to GAPDH. Details: key to EGR1 expression change, significance 0 uM vs.: *: Asterisks mean significant changes compared to levels of 0 μM-treated groups.; **: Asterisks mean significant changes compared to levels of 0 μM-treated groups.; ***: Asterisks mean significant changes compared to levels of 0 μM-treated groups.; ****: Asterisks mean significant changes compared to levels of 0 μM-treated groups. On the procedure:
(§1) HS-SY-II and SW982 cells were treated with EZH2 inhibitors (Compound A or EPZ-011989) and collected at the indicated time points. Total RNA isolation and cDNA synthesis were performed using the TaqMan Gene Expression Cells-to-CT kit (4399002, Life technologies) according to the manufacturer's protocol. ATF3, EGR1, CDKN2A and GAPDH expression were analyzed by using the TaqMan Gene Expression Assays (Life technologies, 4331182) and the TaqMan Probes (Hs00231069_m1, Hs00152928_m1, Hs00233365_m1, and Hs99999905_m1, respectively).

The subject of experiment [2] is ATF3, EGR1, CDKN2A expression in HS-SY-II cells. The experiment is described as above. More on the design: key to ATF3 expression change, significance 0 uM vs. / EGR1 expression change, significance 0 uM vs. / CDKN2A expression change, significance 0 uM vs.: *: Asterisks mean significant changes compared to levels of 0 μM-treated groups.; **: Asterisks mean significant changes compared to levels of 0 μM-treated groups.; ***: Asterisks mean significant changes compared to levels of 0 μM-treated groups.; ****: Asterisks mean significant changes compared to levels of 0 μM-treated groups. The note with it: for ATF3 expression change, significance 0 uM vs. / CDKN2A expression change, significance 0 uM vs. / EGR1 expression change, significance 0 uM vs.: HS-SY-II. Here is the method:
as §1

A further experiment deals with SW982 cells. The experiment is described as follows: Adherent cell line long-term (14-day) proliferation assay, CellTiter-Glo. The following applies: SW982, 14-day long-term proliferation assay. On the procedure:
(§2) 96-well plating for 7 day assay: For each adherent cell line, plated cells in a volume of 100 μL in 96-well plates, to be treated in triplicate, either in the evening (to treat with compound the following day) or in morning (to treat with compound in the evening), to allow cells to attach to plates before compound treatment.
(§3) 6-well plates to be split for 7-14 day assay: Plated 2 mL of cells at the correct density in each well of the 6-well plate. Calculated the correct density from the 96-well plate growth curve by multiplying the 96-well density by 30. The factor 30 came from growth area of the 6-well plate divided by the growth area of the 96-well plate (9.5 cm^2/0.32 cm^2=29.7, rounded up to 30), which corresponds to 30-fold more surface area in a 6-well vs. a 96-well plate.
(§4) Day 0: Treated with compound or DMSO by removing media and adding back either 100 μL (for 96-well plate) or 2 mL (for 6-well plate) media with the correct dilutions of compound/DMSO. Table 1 includes an example of 96-well plate map. Plates were incubated for 96 hours.
(§5) Read one 96-well plate with CellTiter-Glo® for a Day 0 reading (media change not necessary for this plate).
(§6) Day 4: Read one 96-well plate with CellTiter-Glo® for a Day 4 reading (media change not necessary for this plate before reading). Replaced media with fresh media containing compound on Day 4 in 96-well plates and 6-well plates.
(§7) Day 7: read final 96-well plate with CellTiter-Glo®.
(§8) Counted individual wells of 6-well plates, and replated cells to initial plating density in 96-well plates, as described above.
(§9) Repeated steps for Days 0-7 for Days 7-14 of the proliferation assay.
(§10) Particularly, approximately 12 hours before compound treatment, HS-SY-II or SW982 cells were plated at the density of 24,000 cells/well and 7,500 cells/well, respectively in 6-well plates. On day 0, cells were treated with either DMSO or compound starting at 10 μmol/L and decreasing in fourfold dilutions. On day 7, the cells in 6-well plates were trypsinized, counted by TC10 automated cell counter (Bio-Rad, Richmond, Calif.) and replated at the density of 800 cells/well and 250 cells/well for HS-SY-II and SW982, respectively in 96-well plates in triplicate. The cells were allowed to adhere to the plate overnight, and treated with either DMSO or compound as on Day 0. On days 0, 7, 11, and 14, cell viability was determined by CellTiter-Glo® Luminescent Cell Viability Assay (Promega) with EnVision 2103 Multilabel Reader (Perkin-Elmer, Wellesley, Mass.). Compound/media was changed with new one on Day 4 and 11. The ratios of the measured values on Days 7, 11, and 14 to that of day 7 were used to plot proliferation from day 7 to day 14, and to calculate the IC50 values on Day 14. […]
A general note: In ATP-based viability assays light output follows the ATP content of the culture.

A further experiment has as its system HS-SY-II cells. Described as above. The note with it: 14-day long-term proliferation assay. On the procedure: as §2, §3, §4, §5, §6, §7, §8, §9, §10

As for `CCN(c1cc(C#CCN2CCOCC2)cc(C(=O)NCc2c(C)cc(C)[nH]c2=O)c1C)C1CCC(N(C)CCOC)CC1` (stereo not shown) [EPZ-011989], the “EGR1 expression change, significance 0 uM vs.” value in experiment [1] (SW 982, 0.1 uM, day 2) is “*”; in experiment [1] (SW 982, 0.1 uM, day 4), “**”; in experiment [1] (SW 982, 1 uM, day 7), “*”; in experiment [2] (0.1 uM, day 4), “**”; in experiment [2] (1 uM, day 4), “**”; in experiment [2] (1 uM, day 7) it was “**”. In addition, the “ATF3 and EGR1 expression” value in experiment [1] (SW982 in vitro culture) is reported as “not in SW982”; in experiment [2] (HS-SY-II in vitro culture) it was “upregulated”. The CDKN2A expression result in experiment [2] (HS-SY-II in vitro culture) was “Dose- and time-dependent CDKN2A upregulation”. Besides, the “ATF3 expression change, significance 0 uM vs.” value in experiment [2] (0.1 uM, day 4) is recorded as “**”; in experiment [2] (1 uM, day 2), “*”; in experiment [2] (1 uM, day 4), “*”; in experiment [2] (1 uM, day 7), “**”. Also, the “CDKN2A expression change, significance 0 uM vs.” value in experiment [2] (0.1 uM, day 4) is given as “****”; in experiment [2] (1 uM, day 2), “***”; in experiment [2] (1 uM, day 4), “****”; in experiment [2] (1 uM, day 7), “****”.

For `CCN(c1cc(-c2ccc(CN3CCOCC3)cc2)cc(C(=O)NCc2c(C)cc(C)[nH]c2=O)c1C)[C@H]1CC[C@H](N(C)C)CC1` [Compound E], the “sensitivity of cell proliferation” value in the experiment with SW982 cells is “did not”; in the experiment with HS-SY-II cells it was “high sensitivity”.
